According to US20180352841A1, “COMPOSITION HAVING RICH-TASTE IMPARTING FUNCTION” (AJINOMOTO CO., INC., priority 2016, published 2018):

What was measured:
[1] = Organoleptic evaluation of coffee-like thickness in milk coffee with 0.2 ppm γ-Glu-Val-Gly (Example 1); conditions: for Coffee-like thickness (initial taste) / Coffee-like thickness (middle to aftertaste): milk coffee + 0.2 ppm γ-Glu-Val-Gly (control sample = score 0); for Coffee-like thickness (initial taste): 0 to 1 second after drinking, score 0 to 3 (0 no effect, 1 weakly effective, 2 effective, 3 strongly effective), 2 to 4 panelists, ingredient ppm: succinic acid 5, proline 12.5, KH2PO4 3, K2HPO4 12.5, L-tartaric acid 6, adipic acid 25, citric acid 3.5, CaCl2 50, MgCl2 12.5, DL-malic acid 3, trisodium citrate 0.8, sodium fumarate 1.5; for Coffee-like thickness (middle to aftertaste): 1 to 5 seconds after drinking, score 0 to 3, ingredient ppm as in Table 1 c0 (succinic acid 5, proline 12.5, KH2PO4 3, K2HPO4 12.5, L-tartaric acid 6, adipic acid 25, citric acid 3.5, CaCl2 50, MgCl2 12.5, DL-malic acid 3, trisodium citrate 0.8, sodium fumarate 1.5); for Thickness-enhancing effect for the initial taste: milk coffee + 0.2 ppm γ-Glu-Val-Gly, summary of Table 1
Protocol: As an evaluation system, milk coffee (“Birdy Robusta”, Ajinomoto Co., (Thailand) Ltd.) was used. To this milk coffee, 0.2 ppm of γ-Glu-Val-Gly was added, to prepare a control sample.
Organoleptic evaluation was performed by 2 to 4 persons of special panelists for strength of “coffee-like thickness” of each sample, to determine thickness-enhancing effects (thickness-boosting effect) of the ingredients to be evaluated.

[2] = Organoleptic evaluation of thickness in cookie with 5 ppm γ-Glu-Val-Gly (Example 4); conditions: for Thickness (initial taste) / Thickness (middle to aftertaste): cookie, γ-Glu-Val-Gly 5 ppm in dough (control = score 0), score 0 to 3, L-tartaric acid 5 ppm, sodium L-tartrate 2 ppm, adipic acid 20 ppm, citric acid 1 ppm; for Thickness (initial taste): 0 to 4 seconds after eating; for Thickness (middle to aftertaste): 4 to 15 seconds after eating; for Thickness-enhancing effect for the initial taste: cookie with 5 ppm γ-Glu-Val-Gly, text summary of Table 4
Protocol: Organoleptic evaluation was performed by 2 persons of special panelists for strength of “thickness” of each sample, to determine thickness-enhancing effects (thickness-boosting effect) of the ingredients to be evaluated. The organoleptic evaluation was performed by a four grade scoring method for initial taste, middle taste, and aftertaste (sensed in the periods of 0 to 4 second, 4 to 10 seconds, and 10 to 15 seconds after eating, respectively, which periods are defied for a solid) with scores of 0 to 3, wherein score 0 means no effect (i.e. strength of the thickness is the same as that of the control sample, score 1 means weakly effective, score 2 means effective, and score 3 means strongly effective.

[3] = Organoleptic evaluation of coffee-like thickness in milk coffee with 0.8 ppm γ-Glu-Abu (Example 3); conditions: for Coffee-like thickness (initial taste) / Coffee-like thickness (middle to aftertaste): milk coffee + γ-Glu-Abu 0.8 ppm (control = score 0), score 0 to 3, L-tartaric acid 6 ppm, adipic acid 25 ppm, citric acid 3.5 ppm; for Coffee-like thickness (initial taste): 0 to 1 second; for Coffee-like thickness (middle to aftertaste): 1 to 5 seconds; for thickness-enhancing effect for initial taste: milk coffee + 0.8 ppm γ-Glu-Abu, summary of Table 3
Protocol: (§1) Organoleptic evaluation was performed by 2 to 4 persons of special panelists for strength of “coffee-like thickness” of each sample, to determine thickness-enhancing effects (thickness-boosting effect) of the ingredients to be evaluated. The organoleptic evaluation was performed by a four grade scoring method for initial taste, middle taste, and aftertaste (sensed in the periods of 0 to 1 second, 1 to 3 seconds, and 3 to 5 seconds after drinking, respectively, which periods are defined for a liquid) with scores of 0 to 3, wherein score 0 means no effect (i.e. strength of the thickness is the same as that of the control sample), score 1 means weakly effective, score 2 means effective, and score 3 means strongly effective.
(§2) As an evaluation system, milk coffee (“Birdy Robusta”, Ajinomoto Co., (Thailand) Ltd.) was used.
(§3) Organoleptic evaluation was performed for strength of “coffee-like thickness” of each sample by 2 persons of special panelists with the same criteria as those of Example 1 wherein score 0 was defined to mean the strength of thickness of each control sample, to determine thickness-enhancing effects (thickness-boosting effects) of the ingredients to be evaluated.

[4] = Organoleptic evaluation of thickness in carbonated lemon drink with 15 ppm γ-Glu-Val-Gly (Example 2); conditions: for Thickness (initial taste) / Thickness (middle to aftertaste): carbonated lemon drink + 15 ppm γ-Glu-Val-Gly (control = score 0), score 0 to 3, L-tartaric acid 24 ppm, adipic acid 50 ppm, citric acid 3.5 ppm; for Thickness (initial taste): 0 to 1 second; for Thickness (middle to aftertaste): 1 to 5 seconds
[5] = Organoleptic evaluation of salty taste-like thickness in potage soup with 2 ppm γ-Glu-Val-Gly (Example 2); conditions: for Salty taste-like thickness (initial taste) / Salty taste-like thickness (middle to aftertaste): potage soup + 2 ppm γ-Glu-Val-Gly (control = score 0), score 0 to 3, L-tartaric acid 6 ppm, adipic acid 25 ppm, citric acid 2 ppm; for Salty taste-like thickness (initial taste): 0 to 1 second; for Salty taste-like thickness (middle to aftertaste): 1 to 5 seconds
[6] = Organoleptic evaluation of coffee-like thickness in milk coffee with 0.6 ppm γ-Glu-Abu-Gly (Example 3); conditions: for Coffee-like thickness (initial taste) / Coffee-like thickness (middle to aftertaste): milk coffee + γ-Glu-Abu-Gly 0.6 ppm (control = score 0), score 0 to 3, L-tartaric acid 6 ppm, adipic acid 25 ppm, citric acid 3.5 ppm; for Coffee-like thickness (initial taste): 0 to 1 second; for Coffee-like thickness (middle to aftertaste): 1 to 5 seconds; for thickness-enhancing effect for initial taste: milk coffee + 0.6 ppm γ-Glu-Abu-Gly, summary of Table 3
Protocol: as §1, §2, §3

[7] = carbonated lemon drink + 15 ppm γ-Glu-Val-Gly, Table 2
[8] = potage soup + 2 ppm γ-Glu-Val-Gly, Table 2

O=P([O-])([O-])O.[K+].[K+] [Dipotassium hydrogenphosphate]
Coffee-like thickness (initial taste) [1]: 0
Coffee-like thickness (middle to aftertaste) [1]: 1.0

O=C(O)[C@@H]1CCCN1 [Proline]
Coffee-like thickness (initial taste) [1]: 0
Coffee-like thickness (middle to aftertaste) [1]: 1.5

O=C(O)CCC(=O)O [Succinic acid]
Coffee-like thickness (initial taste) [1]: 0
Coffee-like thickness (middle to aftertaste) [1]: 2.5

O=C(O)CC(O)(CC(=O)O)C(=O)O [Citric acid, reference compound]
Coffee-like thickness (initial taste) [1]: 0
Coffee-like thickness (middle to aftertaste) [1]: 0
Thickness (initial taste) [2]: 0
Thickness (middle to aftertaste) [2]: 0
Coffee-like thickness (initial taste) [3]: 0
Coffee-like thickness (middle to aftertaste) [3]: 0
Thickness (initial taste) [4]: 0
Thickness (middle to aftertaste) [4]: 0
thickness-enhancing effect [4, 7]: not observed
Salty taste-like thickness (initial taste) [5]: 0
Salty taste-like thickness (middle to aftertaste) [5]: 0
thickness-enhancing effect [5, 8]: not observed
Coffee-like thickness (initial taste) [6]: 0
Coffee-like thickness (middle to aftertaste) [6]: 0

O=P([O-])(O)O.[K+] [Potassium dihydrogenphosphate]
Coffee-like thickness (initial taste) [1]: 0
Coffee-like thickness (middle to aftertaste) [1]: 0.5

O=C(O)[C@H](O)[C@@H](O)C(=O)O [L-Tartaric acid]
Coffee-like thickness (initial taste) [1]: 1.5
Coffee-like thickness (middle to aftertaste) [1]: 0
Thickness-enhancing effect for the initial taste [1]: observed
Thickness-enhancing effect for the initial taste [2]: observed
Thickness (initial taste) [2]: 1.5
Thickness (middle to aftertaste) [2]: 1.0
thickness-enhancing effect for initial taste [3]: observed
Coffee-like thickness (initial taste) [3]: 1.5
Coffee-like thickness (middle to aftertaste) [3]: 0
Thickness (initial taste) [4]: 1.0
Thickness (middle to aftertaste) [4]: 0
thickness-enhancing effect for initial taste [4, 7]: observed
Salty taste-like thickness (initial taste) [5]: 1.3
Salty taste-like thickness (middle to aftertaste) [5]: 0
thickness-enhancing effect for initial taste [5, 8]: observed
thickness-enhancing effect for initial taste [6]: observed
Coffee-like thickness (initial taste) [6]: 1.5
Coffee-like thickness (middle to aftertaste) [6]: 0

O=C([O-])CC(O)(CC(=O)[O-])C(=O)[O-].[Na+].[Na+].[Na+] [Trisodium citrate]
Coffee-like thickness (initial taste) [1]: 0
Coffee-like thickness (middle to aftertaste) [1]: 0

O=C([O-])[C@H](O)[C@@H](O)C(=O)[O-].[Na+].[Na+] [Sodium L-tartrate]
Thickness (initial taste) [2]: 0.7
Thickness (middle to aftertaste) [2]: 0.5

O=C(O)CC(O)C(=O)O (racemic) [DL-Malic acid]
Coffee-like thickness (initial taste) [1]: 0
Coffee-like thickness (middle to aftertaste) [1]: 0

O=C(O)CCCCC(=O)O [Adipic acid]
Coffee-like thickness (initial taste) [1]: 1.0
Coffee-like thickness (middle to aftertaste) [1]: 0
Thickness-enhancing effect for the initial taste [1]: observed
Thickness-enhancing effect for the initial taste [2]: observed
Thickness (initial taste) [2]: 1.2
Thickness (middle to aftertaste) [2]: 1.0
thickness-enhancing effect for initial taste [3]: observed
Coffee-like thickness (initial taste) [3]: 1.0
Coffee-like thickness (middle to aftertaste) [3]: 0.5
Thickness (initial taste) [4]: 1.5
Thickness (middle to aftertaste) [4]: 0
thickness-enhancing effect for initial taste [4, 7]: observed
Salty taste-like thickness (initial taste) [5]: 1.3
Salty taste-like thickness (middle to aftertaste) [5]: 0
thickness-enhancing effect for initial taste [5, 8]: observed
thickness-enhancing effect for initial taste [6]: observed
Coffee-like thickness (initial taste) [6]: 1.0
Coffee-like thickness (middle to aftertaste) [6]: 1.0

[Cl-].[Cl-].[Mg+2] [Magnesium chloride]
Coffee-like thickness (initial taste) [1]: 0
Coffee-like thickness (middle to aftertaste) [1]: 0

O=C([O-])/C=C/C(=O)[O-].[Na+].[Na+] [Sodium fumarate]
Coffee-like thickness (initial taste) [1]: 0
Coffee-like thickness (middle to aftertaste) [1]: 0

[Ca+2].[Cl-].[Cl-] [Calcium chloride]
Coffee-like thickness (initial taste) [1]: 0
Coffee-like thickness (middle to aftertaste) [1]: 0
